Source: patent US3989835A, “Method of using 6-substituted amino phenyl-2,3,5,6-tetra-hydro[2,1-b]thiazoles for controlling gastrointestinal nematodes” (American Cyanamid Company, priority 1974, dated 1976)
Counter-ions that a name gives are not always drawn. Like-named read-outs stand apart in the source and are kept apart here.

Assays:
in vivo = settings: for LD50: mouse, in vivo, po; for Approx. LD50 /ED50: chemotherapeutic index, mouse oral, N. dubius; for Dead/Total: mice
Excerpt: Data on the acute oral toxicity to mice of various single oral doses of the above compounds and several analogs were obtained by conventional procedures, (Table IX hereinafter).

Nematospiroides dubius = assay: Anthelmintic efficacy against N. dubius in mice, single oral dose; type: in vivo, Nematospiroides dubius (in albino female mice); settings: for inhibition in vivo at 40 mg/kg: single oral dose 40 mg./Kg.; for inhibition in vivo at 60 mg/kg: single oral dose 60 mg./Kg.; for inhibition in vivo at 2 mg/kg: single oral dose 2.0 mg./Kg.; for inhibition in vivo at 5 mg/kg: single oral dose 5.0 mg./Kg.; for inhibition in vivo at 100 mg/kg: single oral dose 100 mg./Kg.; for inhibition in vivo at 50 mg/kg: single oral dose 50 mg./Kg.; for inhibition in vivo at 20 mg/kg: single oral dose 20 mg./Kg.
Description: Albino female mice are each inoculated with about 20 infectious larvae of Nematospiroides dubius. This nematode is a representative of the economical important trichostrongylis worms of ruminants and other hosts, and of nematodes in general. Twenty-two days after inoculation, groups of four randomly selected mice containing adult N. dubius are given single oral doses of test compounds dissolved or suspended in 0.4 ml. of water per 20 gram mouse. At 26 or 27 days after inoculation, treated mice and in each test four randomly selected groups of untreated mice are necropsied. The number of worms in the small intestine of each mouse are determined by microscopic examination. Average worm numbers for each treated group and for the untreated controls are computed and the percent efficacy determined by the customary formula:
(Average Worms in Control - Average Worms in Treated)/(Average Worms in Control) X 100.

[1] = LD50, mice, adjusted to molar equivalents of tetramisole free base
[2] = Heligmosomoides polygyrus, po, molar-adjusted, read-out: Percent Nematospiroides Activity
[3] = Approx. LD50, mouse oral, Table IX
[4] = Heligmosomoides polygyrus, po, continuation of Table X (R1/R4 disubstituted), read-out: ED50
[5] = Heligmosomoides polygyrus, po, mouse oral, Table IX, read-out: Approx. ED50 vs. N. dubius
[6] = Heligmosomoides polygyrus, po, single oral dose 10 mg./Kg., molar-adjusted, read-out: Percent Nematospiroides Activity
[7] = Heligmosomoides polygyrus, po, as Base, single oral dose, mice, > indicates inactive at dose shown, read-out: Approx. ED50
[8] = as Base, single oral dose, mice, > indicates inactive at dose shown
[9] = as Base, single oral dose, mice, > indicates inactive at dose shown, hydrochloride

CC(C)N(C)c1cccc(C2CN3CCSC3=N2)c1 (racemic) [CH3 N--CH(CH3)2, 6-[m-(isopropylmethylamino)phenyl]-2,3,5,6-tetrahydroimidazo[2,1-b]thiazol]
LD50 (in vivo; [1]): 40 to 60 mg/kg | inhibition in vivo at 40 mg/kg (Nematospiroides dubius; [2]): 78% | inhibition in vivo at 60 mg/kg (Nematospiroides dubius; [2]): 88%

CC(=O)Nc1ccc(Br)c(C2CN3CCSC3=N2)c1 (racemic) [R1 =COCH3 R4 =Br]
LD50 (in vivo; [3]): > 100 mg/kg | ED50 (Nematospiroides dubius; [4]): 30 mg/kg | ED50 (Nematospiroides dubius; [5]): 30 mg/kg

Nc1ccc(Br)c(C2CN3CCSC3=N2)c1 (racemic) [R1 =H R4 =Br, dl-6-(5-amino-2-bromophenyl)-2,3,5,6-tetrahydroimidazo[2,1-b]thiazole, dihydrochloride]
Approx. LD50 /ED50 (in vivo; Table IX): 8 | LD50 (in vivo; [3]): 40 mg/kg | LD50 (in vivo; [1]): ~50 mg/kg | Dead/Total (in vivo; single oral dose 20 Mg./Kg.): 0/6 | Dead/Total (in vivo; single oral dose 40 Mg./Kg.): 2/6 | Dead/Total (in vivo; single oral dose 80 Mg./Kg.): 6/6 | ED50 (Nematospiroides dubius; [4]): 5 mg/kg | ED50 (Nematospiroides dubius; [5]): 5 mg/kg | inhibition in vivo at 4 mg/kg (Nematospiroides dubius; Heligmosomoides polygyrus, po, single oral dose 4.0 mg./Kg., molar-adjusted, read-out: Percent Nematospiroides Activity): 43% | inhibition in vivo at 10 mg/kg (Nematospiroides dubius; [6]): 100%

Nc1ccccc1C1CN2CCSC2=N1 (racemic) [dl 2HCl NH2 ortho, reference compound]
ED50 (Nematospiroides dubius; [7]): > 100 mg/kg

S=C=Nc1cccc(C2CN3CCSC3=N2)c1 (racemic) [dl Base N=C=S meta, reference compound]
ED50 (Nematospiroides dubius; Heligmosomoides polygyrus, po, read-out: Approx. ED50): 20 mg/kg

COc1cccc(C2CN3CCSC3=N2)c1 (racemic) [dl HBr OCH3 meta, reference compound]
ED50 (Nematospiroides dubius; [7]): > 10 mg/kg

Cc1cccc(C2CN3CCSC3=N2)c1 (racemic) [dl HCl CH3 meta, reference compound]
ED50 (Nematospiroides dubius; [7]): > 10 mg/kg

O=[N+]([O-])c1cccc(C2CN3CCSC3=N2)c1 (racemic) [dl HCl NO2 meta, dl-6-(m-nitrophenyl)-2,3,5,6-tetrahydroimidazo[2,1-b]thiazole hydrochloride, reference compound]
ED50 (Nematospiroides dubius; [7]): 15 mg/kg

O=[N+]([O-])c1ccccc1C1CN2CCSC2=N1 (racemic) [dl HCl NO2 ortho, reference compound]
ED50 (Nematospiroides dubius; [7]): > 100 mg/kg

O=[N+]([O-])c1cccc(C2CN3C=CSC3=N2)c1 (racemic) [dl HClO4 NO2 * meta, reference compound]
ED50 (Nematospiroides dubius; [7]): 25 mg/kg

Oc1cccc(C2CN3CCSC3=N2)c1 (racemic) [dl OH meta, reference compound]
ED50 (Nematospiroides dubius; [7]): > 10 mg/kg

CCC(=O)Nc1cccc(C2CN3CCSC3=N2)c1 (racemic) [m-NH--CO--C2 H5 dl]
Approx. LD50 /ED50 (in vivo; Table IX): 20 | LD50 (in vivo; [3]): < 40 mg/kg | LD50 (in vivo; [1]): 30 to 40 mg/kg | Dead/Total (in vivo; single oral dose 40 Mg./Kg.): 4/5 | Dead/Total (in vivo; single oral dose 60 Mg./Kg.): 4/6 | Dead/Total (in vivo; single oral dose 80 Mg./Kg.): 5/5 | Dead/Total (in vivo; single oral dose 100 Mg./Kg.): 6/6 | ED50 (Nematospiroides dubius; [7]): 2 mg/kg | ED50 (Nematospiroides dubius; [5]): 2 mg/kg | inhibition in vivo at 2 mg/kg (Nematospiroides dubius; [2]): 76% | inhibition in vivo at 5 mg/kg (Nematospiroides dubius; [2]): 100% | inhibition in vivo at 10 mg/kg (Nematospiroides dubius; [6]): 100%

CCCC(=O)Nc1cccc(C2CN3CCSC3=N2)c1 (racemic) [m-NH--CO--C3 H7n dl]
Approx. LD50 /ED50 (in vivo; Table IX): 20 | LD50 (in vivo; [3]): 40 mg/kg | LD50 (in vivo; [1]): 30 to 40 mg/kg | Dead/Total (in vivo; single oral dose 40 Mg./Kg.): 3/5 | Dead/Total (in vivo; single oral dose 60 Mg./Kg.): 4/5 | Dead/Total (in vivo; single oral dose 80 Mg./Kg.): 4/5 | Dead/Total (in vivo; single oral dose 100 Mg./Kg.): 5/5 | ED50 (Nematospiroides dubius; [7]): 2 mg/kg | ED50 (Nematospiroides dubius; [5]): 2 mg/kg | inhibition in vivo at 1.25 mg/kg (Nematospiroides dubius; Heligmosomoides polygyrus, po, single oral dose 1.25 mg./Kg., molar-adjusted, read-out: Percent Nematospiroides Activity): 43% | inhibition in vivo at 2 mg/kg (Nematospiroides dubius; [2]): 58% | inhibition in vivo at 5 mg/kg (Nematospiroides dubius; [2]): 99% | inhibition in vivo at 10 mg/kg (Nematospiroides dubius; [6]): 100%

CC(C)(C)C(=O)Nc1cccc(C2CN3C=CSC3=N2)c1 (stereo not drawn) [5,6-dihydro HN-CO-C(CH3)3, 3'-(5,6-dihydroimidazo[2,1-b]thiazol-6-yl)pivalanilide]
ED50 (Nematospiroides dubius; [7]): 7.5 mg/kg | inhibition in vivo at 5 mg/kg (Nematospiroides dubius; [2]): 35% | inhibition in vivo at 10 mg/kg (Nematospiroides dubius; [6]): 80%

CC(C)C(=O)Nc1cccc(C2CN3C=CSC3=N2)c1 (stereo not drawn) [5,6-dihydro HN-CO-CH(CH3)2, 3'(5,6-dihydroimidazo[2,1-b]thiazol-6-yl)isobutyranilide]
ED50 (Nematospiroides dubius; [7]): 7.5 mg/kg | inhibition in vivo at 5 mg/kg (Nematospiroides dubius; [2]): 32% | inhibition in vivo at 10 mg/kg (Nematospiroides dubius; [6]): 68%

CC(C)N(C=O)c1cccc(C2CN3CCSC3=N2)c1 (stereo not drawn) [(CH3)2 CH--N--CHO, N-isopropyl-3'-(2,3,5,6-tetrahydroimidazo[2,1-b]thiazol-6-yl) formanilide dihydrochloride]
inhibition in vivo at 40 mg/kg (Nematospiroides dubius; [2]): 99% | inhibition in vivo at 60 mg/kg (Nematospiroides dubius; [2]): 100%

CC(=O)Nc1cccc(C2CN3CCSC3=N2)c1 (stereo not drawn) [H--N--CO--CH3 l-]
Percent Nematospiroides Activity (Nematospiroides dubius; single oral dose 4.0 mg./Kg., molar-adjusted): 51% | Percent Nematospiroides Activity (Nematospiroides dubius; single oral dose 10 mg./Kg., molar-adjusted): 100%

CS(=O)(=O)Nc1cccc(C2CN3CCSC3=N2)c1 (stereo not drawn) [H--N--SO2 CH3]
inhibition in vivo at 100 mg/kg (Nematospiroides dubius; [2]): 100%

CC(CO)Nc1cccc(C2CN3CCSC3=N2)c1 (stereo not drawn) [HN--CH(CH3)CH2 OH]
inhibition in vivo at 5 mg/kg (Nematospiroides dubius; [2]): 1% | inhibition in vivo at 10 mg/kg (Nematospiroides dubius; [6]): 1% | inhibition in vivo at 50 mg/kg (Nematospiroides dubius; [2]): 67%

c1ccc(CNc2cccc(C3CN4CCSC4=N3)c2)cc1 (stereo not drawn) [Table XII b1716]
inhibition in vivo at 5 mg/kg (Nematospiroides dubius; [2]): 56% | inhibition in vivo at 10 mg/kg (Nematospiroides dubius; [6]): 91% | inhibition in vivo at 20 mg/kg (Nematospiroides dubius; [2]): 95%

COc1ccc(CNc2cccc(C3CN4CCSC4=N3)c2)cc1 (stereo not drawn) [Table XII b1718]
inhibition in vivo at 10 mg/kg (Nematospiroides dubius; [6]): 40% | inhibition in vivo at 20 mg/kg (Nematospiroides dubius; [2]): 100% | inhibition in vivo at 50 mg/kg (Nematospiroides dubius; [2]): 100% | inhibition in vivo at 100 mg/kg (Nematospiroides dubius; [2]): 100%

O=C(Cc1ccccc1)Nc1cccc(C2CN3CCSC3=N2)c1 (stereo not drawn) [Table XII b1825]
inhibition in vivo at 2 mg/kg (Nematospiroides dubius; [2]): 44% | inhibition in vivo at 5 mg/kg (Nematospiroides dubius; [2]): 76% | inhibition in vivo at 10 mg/kg (Nematospiroides dubius; [6]): 95%

Nc1ccc(Br)c(C2CN3CCSC3=N2)c1 (stereo not drawn) [Table XIII b1902]
inhibition in vivo at 30 mg/kg (Nematospiroides dubius; Heligmosomoides polygyrus, po, single oral dose 30 mg./Kg., molar-adjusted, read-out: Percent Nematospiroides Activity): 37% | inhibition in vivo at 60 mg/kg (Nematospiroides dubius; [2]): 97%

CC(=O)Nc1ccc(Br)c(C2CN3CCSC3=N2)c1 (stereo not drawn) [Table XIII b1903]
inhibition in vivo at 50 mg/kg (Nematospiroides dubius; [2]): 100% | inhibition in vivo at 100 mg/kg (Nematospiroides dubius; [2]): 100%

Nc1cccc(C2CN3CCSC3=N2)c1 (stereo not drawn) [d 2HCl NH2 meta, d-2,3,5,6-Tetrahydro-6-(m-aminophenyl)imidazo[2,1-b]thiazoleDihydrochloride]
Approx. ED50 (Nematospiroides dubius; [8]): 10 Mg./Kg.

Nc1ccc(C2CN3CCSC3=N2)cc1 (stereo not drawn) [d 2HCl NH2 para, reference compound]
Approx. ED50 (Nematospiroides dubius; [8]): > 20 Mg./Kg.

O=CNc1ccc(C2CN3CCSC3=N2)cc1 (stereo not drawn) [d Base NH--HCO para, reference compound]
Approx. ED50 (Nematospiroides dubius; [8]): > 40 Mg./Kg.

O=[N+]([O-])c1cccc(C2CN3CCSC3=N2)c1 (stereo not drawn) [d HCl NO2 meta, d-6-(m-nitrophenyl)-2,3,5,6-tetrahydroimidazo[2,1-b]thiazole hydrochloride, reference compound]
Approx. ED50 (Nematospiroides dubius; [9]): > 30 Mg./Kg.

O=[N+]([O-])c1ccc(C2CN3CCSC3=N2)cc1 (stereo not drawn) [d HCl NO2 para, reference compound]
Approx. ED50 (Nematospiroides dubius; [8]): > 200 Mg./Kg.

Nc1ccc(C2CN3CCSC3=N2)cc1 (stereo not drawn) [l 2HCl NH2 para, reference compound]
ED50 (Nematospiroides dubius; [7]): > 10 mg/kg

CNc1ccc(C2CN3CCSC3=N2)cc1 (stereo not drawn) [l 2HCl NH--CH3 para, reference compound]
ED50 (Nematospiroides dubius; [7]): > 50 mg/kg

O=CNc1ccc(C2CN3CCSC3=N2)cc1 (stereo not drawn) [l Base NH--HCO para, reference compound]
Approx. ED50 (Nematospiroides dubius; [8]): > 10 Mg./Kg.

O=[N+]([O-])c1cccc(C2CN3CCSC3=N2)c1 (stereo not drawn) [l HCl NO2 meta, l-6-(m-Nitrophenyl)-2,3,5,6-tetrahydroimidazo[2,1-b]thiazole hydrochloride, reference compound]
Approx. ED50 (Nematospiroides dubius; [9]): 12 Mg./Kg.

O=[N+]([O-])c1ccc(C2CN3CCSC3=N2)cc1 (stereo not drawn) [l HCl NO2 para, reference compound]
Approx. ED50 (Nematospiroides dubius; [8]): 40 Mg./Kg.
